In patent publication US20080280886A1, “SUBSTITUTED UREAS” (AUSPEX PHARMACEUTICALS, INC., priority 2007, published 2008):

Experiments:
[1] = In vitro liver microsomal stability assay; assay type: in vitro ADME; conditions: 1 mg per mL liver microsome protein, NADPH-generating system, 5 microgram per mL compound, 37° C., 0-60 min, LC/MS/MS
Procedure: Liver microsomal stability assays are conducted at 1 mg per mL liver microsome protein with an NADPH-generating system in 2% NaHCO3 (2.2 mM NADPH, 25.6 mM glucose 6-phosphate, 6 units per mL glucose 6-phosphate dehydrogenase and 3.3 mM MgCl2). Test compounds are prepared as solutions in 20% acetonitrile-water and added to the assay mixture (final assay concentration 5 microgram per mL) and incubated at 37° C. Final concentration of acetonitrile in the assay should be <1%. Aliquots (50 μL) are taken out at times 0, 15, 30, 45, and 60 min, and diluted with ice cold acetonitrile (200 μL) to stop the reactions. Samples are centrifuged at 12,000 RPM for 10 min to precipitate proteins. Supernatants are transferred to microcentrifuge tubes and stored for LC/MS/MS analysis of the degradation half-life of the test compounds.

[2] = system: hyperactivity induced by NMDA receptor antagonist MK-801; conditions: Vanover et al. 2006; cited from earlier work
dopamine release = conditions: Li et al. 2005; cited from earlier work
[3] = system: DOI-induced head twitches; conditions: rodent; Vanover et al. 2006; cited from earlier work

Row | Structure (SMILES) | increase in degradation half-life as compared to the non-isotopically enriched drug (Pimavanserin) [1] [%] | hyperactivity induced by MK-801 (dozocilpine) [2] | dopamine release when combined with haloperidol (dopamine release) | DOI-induced head twitches [3]
1 | [2H]C([2H])(NC(=O)N(C1CCN(C([2H])([2H])[2H])CC1)C([2H])([2H])c1ccc(F)cc1)c1ccc(OC([2H])([2H])C(C)C)cc1 [Example 3, d9-1-(4-Fluorobenzyl)-3-(4-isobutoxybenzyl)-1-(1-methylpiperidin-4-yl)urea hemi-tartrate] | 17 |  |  | 
2 | CC(C)COc1ccc(CNC(=O)N(Cc2ccc(F)cc2)C2CCN(C)CC2)cc1 [Pimavanserin, 1-(4-fluoro-benzyl)-3-(4-isobutoxy-benzyl)-1-(1-methyl-piperidin-4-yl)-urea] |  | attenuate hyperactivity | potentiate dopamine release | reduce
